The subject of one assay is ferric cytochrome c. The experiment in a line: Heme protein selectivity, stopped-flow UV-vis: cytochrome c. The format is biochemical. The settings on record: pseudo-first-order conditions. The protocol: (§1) Since hydrogen sulfide and polysulfides are known to react with other heme proteins, the selectivity of 3MI for IDO1 was examined by mixing the substituted indole compounds (such as 3MI) with several other heme proteins and observing their reactions using stopped-flow UV—vis spectrometry.
(§2) The substituted indole compounds had no effect on catalase even at 250 μM, whereas the substituted indole compounds did appear to reduce myoglobin and hemoglobin, producing their oxygen-bound forms. The substituted indole compound were also able to reduce ferric cytochrome c to its distinctive ferrous form. The second-order rate constants of these reactions were determined under pseudo-first-order conditions giving 6.6×10^3, 1.6×10^4, and 2.7×10^5 M^−1 s^−1 for myoglobin, hemoglobin, and cytochrome c, respectively. […] Unlike myoglobin and hemoglobin, the oxy-form of IDO1 was not observed due to the relatively slow reduction of IDO1 by 3MI.

The target in a further assay is ferric IDO1 (Homo sapiens, UniProt P14902). The experiment in a line: Stopped-flow UV-vis spectrometry of binding to ferric IDO1. The protocol: FIG. 3 is a graph showing the second-order rate constant of 3MI binding to ferric IDO1 determined by stopped-flow spectrometry.
FIG. 4 is a graph showing stopped-flow UV—vis spectrometry of 3MI (30 μM) binding to IDO1 (1.4 μM) over 0.2 s.
3-Mercaptoindole (3MI) was seen to bind to IDO1 with a fast on-rate of 1.7×10^6 M^−1 s^−1 under pseudo-first-order conditions (See FIG. 3), producing a UV—vis spectrum (see FIG. 4) that has a Soret at 424 nm, a lower peak at 321 nm, and broad q-bands at 537 nm and a shoulder at about 575 nm. […] Note that although 3MI is referred to here, similar results can be seen with other substituted indole compounds disclosed herein.
Using 3MI, there was an initial burst of IDO1 activity, which leveled off after 500 s, well before substrate tryptophan was consumed (FIG. 2, 202). Reduced glutathione was added to the activity assay solutions at nearly cellular concentrations (5 mM) to reduce any oxidized 3MI-disulfide products that may have formed, and this allowed for sustained 3MI-induced IDO1 activity (FIG. 2, 201).

In the next assay the test system is hemoglobin. The experiment in a line: Heme protein selectivity, stopped-flow UV-vis: hemoglobin. The class given is biochemical. The settings on record: pseudo-first-order conditions. The protocol:
as §1, §2

In the next assay the target is IDO1 (Homo sapiens, UniProt P14902). The assay can be described thus: IDO1 activity assay, N-formylkynurenine absorbance at 321 nm. The class given is biochemical. As for the experimental part: FIG. 6 reflects a system involving IDO1 (50 nM), 0.1 mM L-tryptophan, and 5 mM glutathione in 100 mM sodium phosphate, pH 7.0 with <1 μM 6-chloro-5-fluoro-1H-indole-3-thiol.
The activity of the compounds was determined as follows. UV—vis spectra were recorded using a Hewlett-Packer 8453 diode array spectrophotometer. Activity assays were done at room temperature using 100 mM sodium phosphate, pH 7.0, with 500 nM IDO1 (ε404 nm=172 mM^−1 cm^−1) and 50 μM L-tryptophan. These were initiated by addition of IDO1, and activity was monitored at 321 nm where product N-formylkynurenine absorbs (ε321 nm=3750 M^−1 cm^−1).
The substituted indole compound was prepared daily in a 100 mM stock solution in dimethyl sulfoxide (DMSO), and this was serially diluted to maintain a consistent final concentration of 1% (v/v) DMSO in each assay. To maintain activity, 5 mM reduced glutathione was added to some of these from a 0.5 M stock solution. The substituted indole compound was generally tested from 100 nM to 10 μM. The ability of each compound to serve as a reducing substrate for IDO1 was fit using a Michaelis—Menten equation. […] Above 5 μM 3MI, there was a steep inhibitory effect.

For the next assay, the system named is myoglobin. The experiment in a line: Heme protein selectivity, stopped-flow UV-vis: myoglobin. The format is biochemical. The settings on record: pseudo-first-order conditions. As for the experimental part:
as §1, §2

The target of another assay is ferric-superoxo IDO1 (Homo sapiens, UniProt P14902). The assay can be described thus: Double-mixing stopped-flow spectrometry with ferric-superoxo IDO1. The format is biochemical. The following applies: lowest 3MI concentration useful for pseudo-first-order conditions; nearly within instrument mixing time. As for the experimental part: The nature of substituted indole compound-inhibition at high concentrations (>5 μM) was examined further with ferric-superoxo IDO1, the active tryptophan-oxidizing species. Ferric-superoxo IDO1 was generated using double-mixing stopped-flow spectrometry by mixing IDO1 prereduced with 2 mM sodium dithionite into aerobic buffer for 0.5 s. This ferric superoxo species was then mixed in the second push with 3MI that had been maintained in the reduced state using 5 mM glutathione. 3MI readily reacted with ferric-superoxo IDO1 to form ferric IDO1 without any observable intermediates. This was shown by a fast shift from the ferric-superoxo complex (λmax 415 nm) to the ferric (λmax 404 nm) that was completed nearly within the mixing time of the instrument (<10 ms) even at the lowest concentration of 3MI useful for pseudo-first-order reaction conditions (where 3MI must be at a large excess over IDO1). Following this fast conversion to ferric IDO1, there was a slower shift to the ferric 3MI-bound complex as indicated by the Soret shifting to 424 nm (as in FIG. 4). To account for both reactions, these traces were fit using a double exponential expression.

Where only a bound is given, the exact number is not on record here.

Sequence of IDO1 (P14902 whole entry): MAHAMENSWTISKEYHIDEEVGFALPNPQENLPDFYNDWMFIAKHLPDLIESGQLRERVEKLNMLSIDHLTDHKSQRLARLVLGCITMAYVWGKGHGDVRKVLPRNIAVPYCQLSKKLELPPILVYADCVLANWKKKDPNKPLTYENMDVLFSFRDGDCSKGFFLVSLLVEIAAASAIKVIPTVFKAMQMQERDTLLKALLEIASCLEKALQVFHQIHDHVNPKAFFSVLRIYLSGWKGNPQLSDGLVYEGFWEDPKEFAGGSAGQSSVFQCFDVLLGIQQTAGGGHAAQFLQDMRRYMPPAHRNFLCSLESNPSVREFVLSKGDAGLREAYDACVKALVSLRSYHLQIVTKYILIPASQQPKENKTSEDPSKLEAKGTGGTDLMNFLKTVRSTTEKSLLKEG
Sequence of ferric IDO1 (P14902 whole entry): as above
Sequence of ferric-superoxo IDO1 (P14902 whole entry): as above

Regarding `Sc1c[nH]c2ccccc12` [3MI, 3-Mercaptoindole], the “second-order rate constant of reaction (reduction) with cytochrome c” value in the assay with ferric cytochrome c was determined as 270000 M⁻¹ s⁻¹. Further, at ferric IDO1 (IDO1 versus cytochrome c), the “selectivity: IDO1 binding rate constant exceeding that of the cytochrome c reduction” value is “an order of magnitude”. Besides, the kon at ferric IDO1 (pseudo-first-order conditions, stopped-flow, ferric IDO1, read-out: on-rate / second-order rate constant of binding to IDO1) worked out at 1.7e+06 M⁻¹ s⁻¹. Also, in the assay on hemoglobin, the “second-order rate constant of reaction (reduction) with hemoglobin” value was 16000 M⁻¹ s⁻¹. The “concentration above which there was a steep inhibitory effect on IDO1 activity” value at IDO1 is given as “Above 5 μM”. Besides, the “3MI-induced IDO1 activity with glutathione” value at IDO1 (5 mM reduced glutathione added (FIG. 2, 201)) is “sustained”. The “time after which the initial burst of IDO1 activity leveled off” value at IDO1 (3MI without glutathione (FIG. 2, 202), before tryptophan was consumed) is recorded as 500 s. Besides, the “activation of IDO1” value at IDO1 (FIG. 2) was “inducing turnover even at nM concentrations”. Moreover, the Ki on IDO1 (single exponential fit of the inhibitory region at higher concentrations, read-out: Ki app (apparent Ki at half-activity)) stood at 8 ± 3 µM. Besides, in the assay on myoglobin, the “second-order rate constant of reaction (reduction) with myoglobin” value is 6600 M⁻¹ s⁻¹. In addition, the “time to complete the shift from ferric-superoxo complex to ferric IDO1” value at ferric-superoxo IDO1 is below 10 ms.
With `Fc1cc2c(S)c[nH]c2cc1Cl` [6-chloro-5-fluoro-1H-indole-3-thiol], the “IDO1 activity, product N-formylkynurenine absorbance at 321 nm over time (FIG. 6)” value at IDO1 (IDO1 50 nM, 0.1 mM L-tryptophan, 5 mM glutathione, 100 mM sodium phosphate pH 7.0, <1 μM compound, background subtracted) was “increase in absorbance”.

For the origin of these results see US12496290B2, “Method and compounds for treating or preventing autoimmune disorders or immune responses modulated by the expression of IDO1” (The Trustees of Princeton University, priority 2019, dated 2025).
